Like-named read-outs stand apart in the source and are kept apart here.
Columns and labels:
C. albicans (ATCC 90028) = assay: CO-ADD antifungal assay, growth inhibition (OD630); assay type: cell-based, Candida albicans; conditions: up to 32 μg/mL; for MIC C. albicans: predicted or measured MIC, ≥75% growth inhibition, 36 h
Experimental: (§1) The compounds were used as received by the CO-ADD. For the screenings, most compounds were dissolved to a stock concentration of 10 mg/mL in DMSO. K2[Ti(Citrate)3], Na3Citrate, and K2[TiO(Oxalate)2] were dissolved in warm water. [Cu(Deferasirox)(H2O)]2 was dissolved in pyridine after its solubility was determined to be excellent in pyridine due to coordination of the solvent to the metal producing [Cu(Deferasirox)(pyridine)]2 in situ. […] Each sample concentration was prepared in 384-well plates, non-binding surface plate (NBS; Corning 3640) for each bacterial/fungal strain, tissue-culture treated (TC-treated; Corning 3712/3764), black for mammalian cell types and polypropylene 384-well (PP; […] All sample preparation was conducted using liquid handling robots. For the fungal assays, the fungi (C. albicans (ATCC 90028) and C. neoformans) (ATCC 208821) were used. Both fungi (yeast) strains were cultured for 3 days on Yeast Extract-Peptone Dextrose (YPD; Becton Dickinson 242720, Thermo Fisher Scientific, Waltham, MA, USA) agar at 30 °C. A yeast suspension of 1 × 10^6 to 5 × 10^6 CFU/mL (as determined by OD530) was prepared from five colonies from the agar plates, subsequently diluted with Yeast Nitrogen Base media (YNB; Becton Dickinson 233520, Thermo Fisher Scientific, Waltham, MA, USA), and added to each well of the compound-containing plates (384-well plates, NBS; Corning CLS3640) giving a final cell density of 2.5 × 10^3 CFU/mL and a total volume of 50 μL. Plates were covered and incubated at 35 °C for 36 h without shaking. […] Sigma R7017) and incubation at 35 °C for 2 h, using media-only as a negative control and fungi without inhibitors as a positive control. […] Fluconazole (Sigma F8929) was used as an internal control on each plate for both strains.

MRC-5 cells [1] = assay: MRC-5 cell viability, dose-response treatment, MTT assay; assay type: cell-based, human; conditions: pH 7.4
Experimental: A thawed stock of MRC-5 cells was washed with 1X PBS and resuspended in phenol red DMEM media (supplemented with 10% FBS and 1% of penicillin-streptomycin) and then seeded in a 100 mm × 20 mm (complete, O.D. x H) petri dish and grown in a 5% (v/v) CO2 humidified atmosphere at 37 °C. At least three passages were performed to ensure the integrity of the cells. After this point, cells were collected, thoroughly washed with 1X PBS, and then resuspended in phenol red-free DMEM (supplemented with 10% FBS, 1% Streptomycin/Penicillin, and 2.4 mM L-glutamine) at a 2.0 × 10^5 cells/mL concentration. Approximately 100 µL of the cell solution was seeded into wells of several 96-well plates to begin the MTT assay, which was performed in the 5% (v/v) CO2 humidified atmosphere at 37 °C. At least one lane of wells in each plate was supplied media without cells as a control. […] Most of the compounds were dissolved in 1X PBS buffer at pH 7.4. […] Titanocene dichloride was prepared as a fresh stock solution in DMSO and then diluted in 0.1 M NaCl (aq) instead of 1X PBS (to minimize hydrolysis induced precipitation) to the desired concentration while maintaining a constant 1% (v/v) DMSO background (0.5% DMSO after mixing with the well media). A control of cells treated with media containing 1% (v/v) DMSO was included in the study. The titanocene solutions were used within an hour of preparation in the final cell solution. […] At 3 h before a total of 72 h of incubation with the compounds, the cells were treated with 25 µL of 9 mg/mL MTT prepared in 1X PBS and sterile-filtered. Upon completion of the three hours, 50 µL of 10% (w/v) SDS (prepared in 0.1 M Tris buffer at pH 11) was added to solubilize the purple formazan product crystals and left overnight in the incubator. Control wells in the plates consisted of: (1) Untreated cells + MTT as the measure of 100% viable cell growth in the media and (2) Media with no cells + MTT as the measure of zero cells in the media. Two sets of compounds could be tested per plate. The plates were read at the wavelength of 570 nm (absorbance of the formazan product at pH 10.0) and 800 nm (background control) using a Tecan plate reader. The absorbance of all wells was compared to the absorbance of the untreated cells with the MTT set as the 100% viable cell standard and the absorbance of the zero cell control set as the 0% viable cell standard. […] Nonlinear regression in Origin 8.5 was utilized to fit the growth curves using the pharmacology dose–response equation to determine the half-maximal inhibitory concentration (IC50) and the corresponding standard deviation. All samples were tested six times.

[2] = Aqueous solution stability, ligand exchange lability and solubility; conditions: water / aqueous buffer
[3] = test system: S. aureus MRSA (ATCC 43300); assay: CO-ADD antibacterial assay, growth inhibition (OD600); assay type: cell-based, Staphylococcus aureus; conditions: for MIC S. aureus (MRSA): predicted or measured MIC, lowest concentration with ≥75% growth inhibition, 0.25-32 μg/mL, 18 h; for Dmax S. aureus (MRSA), maximum % inhibition: up to 32 μg/mL
Experimental: (§2) Dry compounds ranging from 1–2 mg were weighed into properly labeled Eppendorf tubes and sealed with parafilm. The compounds were used as received by the CO-ADD. For the screenings, most compounds were dissolved to a stock concentration of 10 mg/mL in DMSO. K2[Ti(Citrate)3], Na3Citrate, and K2[TiO(Oxalate)2] were dissolved in warm water. […] Samples were diluted in water to a final testing concentration of 32 µg/mL while keeping the final co-solvent concentration to a maximum of 0.5%. Where applicable, compounds were serially diluted 1:2 fold eight times. Each sample concentration was prepared in 384-well plates, non-binding surface plate (NBS; Corning 3640) for each bacterial/fungal strain, tissue-culture treated (TC-treated; Corning 3712/3764), black for mammalian cell types and polypropylene 384-well (PP; Corning 3657) for hemolysis assays, all in duplicate (n = 2), and keeping the final DMSO concentration to a maximum of 0.5%. All sample preparation was conducted using liquid handling robots.
(§3) For the bacterial assays, four Gram-negative bacteria (E. coli (ATCC 25922, Manassas, VA, USA); K. pneumoniae (ATCC 700603), A. baumannii; (ATCC 19606), and P. aeruginosa (ATCC 27853) and the Gram-positive bacteria (S. aureus MRSA (ATCC 43300) were used. Each strain was cultured in cation-adjusted Mueller Hinton broth (CAMHB; Bacto Laboratories 212322, Mount Pritchard, Australia) at 37 °C overnight. A sample of each culture was then diluted 40-fold in fresh CAMHB and incubated at 37 °C for 1.5–3 h. The resultant mid-log phase cultures were diluted with CAMHB (CFU/mL measured by OD600), then added to each well of the compound-containing plates (384-well non-binding surface (NBS) plates; Corning CLS3640, Millipore Sigma, Burlington, MA, USA), giving a cell density of 5 × 10^5 CFU/mL and a total volume of 50 µL. Plates were covered and incubated at 37 °C for 18 h without shaking. Inhibition of bacterial growth was determined by measuring absorbance at 600 nm (OD600) with a Tecan M1000 Pro monochromator plate reader, using media-only as negative control and bacteria without inhibitors as a positive control. […] Colistin sulfate (Sigma C4461) and vancomycin HCl (Sigma 861987) were used as internal controls on each plate for Gram-negative and Gram-positive bacteria, respectively.

[4] = test system: A. baumannii (ATCC 19606); assay: as above; assay type: cell-based, Acinetobacter baumannii; conditions: up to 32 μg/mL; for MIC A. baumannii: predicted or measured MIC, ≥75% growth inhibition
Experimental: as §2, §3

[5] = test system: P. aeruginosa (ATCC 27853); assay: as above; assay type: cell-based, Pseudomonas aeruginosa; conditions: up to 32 μg/mL; for MIC P. aeruginosa: predicted or measured MIC, ≥75% growth inhibition
Experimental: as §2, §3

E. coli (ATCC 25922) = assay: as above; assay type: cell-based, Escherichia coli; conditions: up to 32 μg/mL; for MIC E. coli: predicted or measured MIC, ≥75% growth inhibition
Experimental: as §2, §3

[6] = test system: C. neoformans (ATCC 208821); assay: CO-ADD antifungal assay, growth inhibition (resazurin, OD600-570); assay type: cell-based, Cryptococcus neoformans; conditions: up to 32 μg/mL; for MIC C. neoformans: predicted or measured MIC, ≥75% growth inhibition, 36 h
Experimental: as §1

[7] = test system: K. pneumoniae (ATCC 700603); assay: CO-ADD antibacterial assay, growth inhibition (OD600); assay type: cell-based, Klebsiella pneumoniae; conditions: up to 32 μg/mL; for MIC K. pneumoniae: predicted or measured MIC, ≥75% growth inhibition
Experimental: as §2, §3

[8] = test system: total intestinal bacterial count; design: method as in PMID 11762532; conditions: white mice, supplied in bread; cited from earlier work
[9] = cited from earlier work
[10] = test system: hemolytic and nonhemolytic S. aureus cultures; design: method as in doi:10.2298/abs141203061g; conditions: cited from earlier work
[11] = test system: HEK293 ATCC CRL-1573 human embryonic kidney cells; assay: CO-ADD cytotoxicity assay (resazurin); assay type: cell-based; conditions: all concentrations examined (0.25-32 μg/mL), 20 h; CC50 could not be measured
Experimental: The compounds were used as received by the CO-ADD. For the screenings, most compounds were dissolved to a stock concentration of 10 mg/mL in DMSO. K2[Ti(Citrate)3], Na3Citrate, and K2[TiO(Oxalate)2] were dissolved in warm water. [Cu(Deferasirox)(H2O)]2 was dissolved in pyridine after its solubility was determined to be excellent in pyridine due to coordination of the solvent to the metal producing [Cu(Deferasirox)(pyridine)]2 in situ. […] Each sample concentration was prepared in 384-well plates, non-binding surface plate (NBS; Corning 3640) for each bacterial/fungal strain, tissue-culture treated (TC-treated; Corning 3712/3764), black for mammalian cell types and polypropylene 384-well (PP; […] All sample preparation was conducted using liquid handling robots. HEK293 ATCC CRL-1573 human embryonic kidney cells were counted manually in a Neubauer hemocytometer and added to compound-containing plates (384-well plates, tissue culture-treated (TC); […] Life Technologies 11995-073) with 10% FBS (GE SH30084.03).

MRC-5 cells [12] = conditions: cited from earlier work

Structure (SMILES) | MIC C. albicans (C. albicans (ATCC 90028)) [µg/mL] | Dmax C. albicans, maximum % inhibition (C. albicans (ATCC 90028)) [%] | MIC S. aureus (MRSA) [3] [µg/mL] | Dmax S. aureus (MRSA), maximum % inhibition [3] [%] | MIC A. baumannii [4] [µg/mL] | Dmax A. baumannii, maximum % inhibition [4] [%] | MIC P. aeruginosa [5] [µg/mL] | Dmax P. aeruginosa, maximum % inhibition [5] [%] | MIC E. coli (E. coli (ATCC 25922)) [µg/mL] | Dmax E. coli, maximum % inhibition (E. coli (ATCC 25922)) [%] | MIC C. neoformans [6] [µg/mL] | Dmax C. neoformans, maximum % inhibition [6] [%] | MIC K. pneumoniae [7] [µg/mL] | Dmax K. pneumoniae, maximum % inhibition [7] [%] | other results
O=C1[O][Ti-2]23([O]C(=O)c4ccccc4[O]2)([O]C(=O)c2ccccc2[O]3)[O]c2ccccc21.[Na+].[Na+] [Compound 12, Na2[Ti(Salicylate)3]] | >32 | 49.3 | >32 | 3.66 | >32 | 9.4 | >32 | 9.57 | >32 | 2.6 | >32 | −5.2 | >32 | 12.46 | IC50 ± SD (µg/mL), relative IC50 (MRC-5 cells [1]): 5.14 ± 0.92 µg/mL; IC50 (MRC-5 cells [1]; read-out: IC50 ± SD (µM), relative IC50): 8.6 ± 1.54 µM; solubility (in words) [2]: limited solubility in water
O=C(O)C(=O)O.[O]=[Ti] [titanyl oxalate] |  |  |  |  |  |  |  |  |  |  |  |  |  |  | decrease in the total intestinal bacterial count [8]: 50%
O=C([O-])CC1(CC(=O)[O-])[O][Ti-2]23([O]C1=O)([O]C(=O)C(CC(=O)[O-])(CC(=O)[O-])[O]2)[O]C(=O)C(CC(=O)[O-])(CC(=O)[O-])[O]3 [Ti(citrate)3^8−] |  |  |  |  |  |  |  |  |  |  |  |  |  |  | ligand exchange lability (in words) [9]: ligand exchange labile; biofilm formation (in words) ([10]; all concentrations tested (0.5 to 50 mM)): significantly activated biofilm formation; concentration with significant inhibition of growth rate ([10]; only the early phase of the bacterial growth cycle): 50 mM
O=C1CN2CCN3CC(=O)[O][Ti]([O]1)([O]c1ccccc1C2)[O]c1ccccc1C3 [Compound 11, Ti(HBED)] | >32 | 10.43 | >32 | 61.46 | >32 | 68.73 | >32 | 72.48 | >32 | 48.02 | >32 | −18.86 | >32 | 56.3 | antiproliferative effect against HEK293 (in words) [11]: inactive; solution stability (in words) ([9]; pH 4): highly stable in solution; IC50 ± SD (MRC-5 cells [12]): 18.5 ± 1.9 µg/mL; IC50 (MRC-5 cells [12]; read-out: IC50 ± SD): 42 ± 4.4 µM
